Assay results reported in paper PMC9011347, “Small-Molecule Inhibitors Targeting Lipolysis in Human Adipocytes” (Journal of the American Chemical Society, 2022).

Legend:
PNPLA1 = target: T1, PNPLA1 (Homo sapiens, UniProt Q8N8W4); assay: PNPLA1-dependent ω-O-acylceramide formation in HEK293T cells; type: cell-based; conditions: NG-497 40 µM, Orlistat 40 µM
T1 construct: expressed in transfected cells; host or cells: HEK293T cells
Experimental: Fig. S3: Investigation of off-target effects of NG-497 on structurally and functionally related lipid hydrolases. (a) PNPLA1-dependent formation of acylceramides was monitored in a cell-based assay in HEK293T cells. Experiments were performed in the presence or absence of NG-497 (40 µM) and the non-selective lipase inhibitor Orlistat (40 µM). Orlistat, but not NG-497, inhibited PNPLA1/CGI-58-dependent ω-O-acylceramide formation. (b-h) Enzymes were overexpressed in Expi293 cells and cell lysates were used as source of enzymatic activity. […] Experiments were performed in the presence or absence of NG-497 (100 µM) and the formation of reaction products was monitored. […]
Data were calculated relative to the basal activity detected in LacZ-transfected controls. […]
LPL activity was inhibited using an anti-LPL antibody. All data are presented as mean ± S.D. Statistical significance was determined via ANOVA followed by Bonferroni post hoc test ( ***, p < 0.001). […]
Released free fatty acids were quantified via NEFA C kit (Fujifilm Wako Chemicals, Neuss, Germany) and release of p-nitrophenol was measured at 405 nm. […] Cellular ω-O-acylceramide formation was monitored using [1-14C]linoleic acid as tracer. […] The activity of purified human pancreatic lipase (MilliporeSigma #SRE0028) was determined as previously described7 in the presence or absence of NG-497 (100µM) or Orlistat (20 µM). […]

primary human adipocytes = assay: Lipolysis in primary human adipocytes; type: cell-based
Experimental: Figure 3 NG-497 inhibits lipolysis in human SGBS and primary human adipocytes. SGBS adipocytes were preincubated with NG-497 for 1 h at the indicated concentrations. Subsequently, lipolysis was stimulated with isoproterenol (1 μM) and (a) FA and (b) glycerol release was determined after 1 h using commercial kits. (c) Dose-dependent inhibition of isoproterenol-stimulated FA release from SGBS adipocytes by the HSL inhibitor 76-068 (HSLi). […] (e) DAG accumulation in SGBS adipocytes was analyzed by thin-layer chromatography (TLC) following 1 h incubation with HSLi (25 μM), NG-497 (40 μM), and a combination of both inhibitors. […] Subsequently, basal and Forskolin (5 μM)-stimulated release of radioactivity was determined via liquid scintillation over a period of 2 h in the presence or absence of NG-497 (40 μM). FA release was calculated based on FA concentrations in conditioned media after 2 h as determined using a commercial kit. […] Subsequently, the medium was changed and FA release was monitored over a period of 3 h under the indicated conditions. […] Statistical significance was determined via ANOVA followed by Bonferroni post hoc test (^#p < 0.05; ^##p < 0.01; ^###p < 0.001). […]
Released free fatty acids were quantified via NEFA C kit (Fujifilm Wako Chemicals, Neuss, Germany) and release of p-nitrophenol was measured at 405 nm. […]

T1 sequence (Q8N8W4 whole entry): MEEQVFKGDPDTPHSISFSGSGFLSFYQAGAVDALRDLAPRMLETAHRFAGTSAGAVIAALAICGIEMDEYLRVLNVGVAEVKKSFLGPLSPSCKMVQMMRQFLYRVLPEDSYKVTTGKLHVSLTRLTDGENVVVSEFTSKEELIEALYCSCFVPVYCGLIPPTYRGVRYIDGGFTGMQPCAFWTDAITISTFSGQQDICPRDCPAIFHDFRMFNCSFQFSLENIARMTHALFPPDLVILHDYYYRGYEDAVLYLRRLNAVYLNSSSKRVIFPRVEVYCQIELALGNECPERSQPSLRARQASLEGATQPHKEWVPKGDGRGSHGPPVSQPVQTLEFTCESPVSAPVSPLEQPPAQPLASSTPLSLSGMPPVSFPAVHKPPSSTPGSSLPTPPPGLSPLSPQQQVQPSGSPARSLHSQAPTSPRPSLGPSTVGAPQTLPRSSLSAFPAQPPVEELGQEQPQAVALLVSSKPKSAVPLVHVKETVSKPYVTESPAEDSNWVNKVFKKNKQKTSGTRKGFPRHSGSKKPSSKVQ

For `CCOc1ccc(-c2cc(OC)cc(C(=O)OC(C)C)n2)cc1` [NG-497], the “PNPLA1/CGI-58-dependent ω-O-acylceramide formation” value (PNPLA1) was “not affected”, the activity at 40 µM (primary human adipocytes; Homo sapiens, Adipocyte, primary adipocytes, 1 h preincubation with NG-497 40 μM, within the third hour after pretreatment, read-out: lipolytic activity regained after inhibitor removal) was roughly 40% and the “Forskolin-induced FA release” value (primary human adipocytes; primary human adipocytes, NG-497 40 μM, Forskolin 5 μM, 2 h, [9,10-3H] oleic acid label) was “diminished Forskolin-induced FA release to basal level”.
